Test results published in patent US20250186439A1, “PYK2 INHIBITION MODULATES IMMUNE CELL FUNCTION” (The Children's Medical Center Corporation, priority 2022, published 2025).
Entries after “also recorded” stand apart in the source; their conditions may differ.

Assays:
Format in all cases: cell-based, mouse
MG6 cells [1] = test: Proliferation of FACS-sorted mono-/multinuclear MG6 cells; conditions: 1000 nM, 24 h pretreatment
Procedure: FIGS. 7A-7D. Pyk2 inhibition promotes the phagocytotic activity and inflammatory responses in microglia. FIG. 7A: Quantification of the effect of Pyk2 inhibitor treatment on proliferation of mononucleated and multinucleated MG6 cells. MG6 cells were pretreated with 1000 nM Pyk2 inhibitor for 24 hours and mono-/multi-nuclear cells were isolated and collected by fluorescent activated cell sorting. […] There is no difference in proliferation of mononuclear cells after Pyk2 inhibitor treatment compared to untreated control cells. FIG. 7B: Fluorescent imaging depicting the effect of Pyk2 inhibitor on phagocytosis of mononucleated and multinucleated MG6 cells. […] FIG. 7C: Quantification of phagocytosis of mononucleated and multinucleated MG6 cells over time. […] Fluorescence intensity was measured by fluorescence microplate reader at excitation/emission wavelengths of 560/580 nm. […] FIG. 7D: Quantification of the effect of Pyk2 inhibitor treatment on cytokine/chemokine levels of mononucleated and multinucleated MG6 cells. The relative mRNA levels of IL-6, IL-1β, IL-10, and TGF-β were measured by a real-time PCR (qPCR). Measured mRNA transcript levels are reported as the mean level±standard deviation (n=3; *: p-value<0.05; **: p-value <0.01; ***: p-value <0.005; ****: p-value <0.001; and *****: p-value <0.0005). […]

Lamp1 = test: Immunoblot of Lamp1 (lysosomal activity) in MG6 cells; conditions: 1000 nM, under β-amyloid stimulation
Procedure: FIGS. 6A and 6B. Responses of lysosomal function in microglia to β-amyloid stimulation. FIG. 6A: Immunoblots of MG6 cells after treatment with Pyk2 inhibitor and β-amyloid oligomers. Cells were pretreated with 100 ng/mL CSF-1 and 1000 nM Pyk2 inhibitor (PF431396) for 24 hours as indicated, then cell lysates were harvested after treatment with 500 ng/mL β-amyloid for 24 hours (lanes 4-6). MG6 cell lysates were subjected to immunoblotting of phosphorylated Pyk2 (p-Pyk2), Lamp1, Erk, and phosphorylated Erk (p-Erk). Tubulin was used as a loading control. FIG. 6B: Quantification of immunoblotting depicted in FIG. 6A. Ratios of p-Pyk2/Pyk2, Lamp1/Tubulin, and p-Erk/Erk were calculated for MG6 cells pretreated with CSF-1 and a Pyk2 inhibitor, as indicated.
To assess lysosomal activity, Pyk2 inhibitor treated MG6 cells were also exposed to a disease-relevant substrate, β-amyloid protein, which is associated with progressive loss of neuronal function during Alzheimer's disease. After 24 hours of treatment with β-amyloid, control and Pyk2 inhibitor treated MG6 cells were collected, lysed, and immunoblotted in order to determine the relative protein levels of Pyk2, phosphorylated Pyk2, Lamp1, Erk, phosphorylated Erk, and tubulin (FIGS. 6A and 6B). […] However, in the presence of β-amyloid protein, an increase in Lamp1 was observed following treatment with Pyk2 inhibitor.

MG6 cells [2] = test: MG6 microglia viability, morphology and proliferation (Cell Counting Kit-8); conditions: for MG6 cell proliferation: 24 h after CSF-1, listed as Pyk2 inhibitor
Procedure: FIGS. 4A-4E. Induction of multinucleated cells by a Pyk2 inhibitor. FIG. 4A: Microscopic images depicting the effect of a Pyk2 inhibitor on the morphology of MG6 cells. MG6 cell line is established with neonatal C57BL/6 mouse microglia that are collected from whole brain and transformed with c-myc oncogene. MG6 cells were stimulated with 100 ng/mL CSF-1 for 48 hours and then cultured for 24 hours with various concentrations of Pyk2 inhibitor: 0 nM, 100 nM, 500 nM and 1000 nM. FIG. 4B: Quantification of the effect of a Pyk2 inhibitor on the proliferation of MG6 cells. MG6 cells were stimulated with CSF-1 and cultured with various concentrations of Pyk2 inhibitor as in FIG. 4A. The baseline proliferation rate is defined as 100 ng/mL CSF-1 treatment for 48 hours. Proliferation of MG6 cells with various concertation of Pyk2 inhibitor treatment is measured using a Cell Counter Kit for 4 hours of incubation. No difference in MG6 cell proliferation is observed at the Pyk2 inhibitor concentration of 100 nM. […] FIG. 4C: Microscopic images depicting multinucleated MG6 cells with 24 hours of 1000 nM Pyk2 inhibitor treatment following 48 hours of 100 ng/mL CSF-1 treatment. […] Multinucleated cells with two or more nuclei are observed as marked with circles in the bottom image. FIG. 4D: Quantification of the proportion of multinucleated cells after 0 nM, 500 nM, and 1000 nM Pyk2 inhibitor treatment. MG6 cells were treated with Pyk2 inhibitor for 24 hours after 48 hours of 100 ng/mL CSF-1 treatment. […] FIG. 4E: Immunohistochemical staining depicting multinucleation of Pyk2 inhibitor treated microglia. […]
To further assess the function of Pyk2 during neurodegenerative disorders, such as AD, the effect of Pyk2 inhibition was assessed in a microglial cell line. […]
Upon treatment with up to 1000 nM Pyk2 inhibitor, MG6 viability and morphology appeared to be unaffected (FIG. 4A). To assess if Pyk2 inhibition negatively affected proliferation of MG6 cells, treated and untreated cells were quantified using a Cell Counting Kit-8 (Dojindo, Japan CK104) after 4 hours of incubation.

MG6 cells [3] = test: Phagocytosis of pHrodo Red E. coli BioParticles by sorted mono-/multinuclear MG6 cells (fluorescence plate reader)
Procedure: FIGS. 7A-7D. Pyk2 inhibition promotes the phagocytotic activity and inflammatory responses in microglia. FIG. 7A: Quantification of the effect of Pyk2 inhibitor treatment on proliferation of mononucleated and multinucleated MG6 cells. MG6 cells were pretreated with 1000 nM Pyk2 inhibitor for 24 hours and mono-/multi-nuclear cells were isolated and collected by fluorescent activated cell sorting. […] There is no difference in proliferation of mononuclear cells after Pyk2 inhibitor treatment compared to untreated control cells. FIG. 7B: Fluorescent imaging depicting the effect of Pyk2 inhibitor on phagocytosis of mononucleated and multinucleated MG6 cells. MG6 cells were pretreated with 1000 nM Pyk2 inhibitor for 24 hours and mono-/multi-nuclear cells were isolated and collected by fluorescent activated cell sorting. After sorting, cells were treated with pHrodo Red E. coli BioParticles. Representative images are shown at ×20 magnification level. FIG. 7C: Quantification of phagocytosis of mononucleated and multinucleated MG6 cells over time. After Pyk2 inhibitor treatment and cell sorting, MG6 cells were treated with pHrodo Red E. coli BioParticles for the indicated time. Fluorescence intensity was measured by fluorescence microplate reader at excitation/emission wavelengths of 560/580 nm. […] FIG. 7D: Quantification of the effect of Pyk2 inhibitor treatment on cytokine/chemokine levels of mononucleated and multinucleated MG6 cells. The relative mRNA levels of IL-6, IL-1β, IL-10, and TGF-β were measured by a real-time PCR (qPCR). Measured mRNA transcript levels are reported as the mean level±standard deviation (n=3; *: p-value<0.05; **: p-value <0.01; ***: p-value <0.005; ****: p-value <0.001; and *****: p-value <0.0005).
Next, the differences in the activity of mononucleated and multinucleated microglial cells in response to Pyk2 inhibition was further assessed. […] Mononucleated and multinucleated MG6 cells also differed regarding the cytokines and chemokines produced by each (FIG. 7D).

[4] = 4 and 5 hours after pHrodo treatment

Compound: CN(c1ccccc1CNc1nc(Nc2ccc3c(c2)CC(=O)N3)ncc1C(F)(F)F)S(C)(=O)=O [PF-431396]
- proliferation of sorted mononucleated MG6 cells vs untreated (MG6 cells [1]): no difference
- proliferation of sorted multinucleated MG6 cells (MG6 cells [1]; listed as Pyk2 inhibitor): slightly increased; also recorded: increased level
- Lamp1 (lysosomal activity) (Lamp1): increased
- Lamp1 (lysosomal activity) (Lamp1; listed as Pyk2 inhibitor): increase
- MG6 cell proliferation (MG6 cells [2]; 100 nM (up to 100 nM)): No significant change; also recorded: No difference
- MG6 cell proliferation (MG6 cells [2]; 500 nM or 1000 nM): slight reduction; also recorded: slightly decreased
- MG6 viability and morphology (MG6 cells [2]; up to 1000 nM, 24 h after 48 h 100 ng/mL CSF-1): unaffected
- phagocytosis of pHrodo BioParticles, sorted mononucleated cells vs control (MG6 cells [3]; 1000 nM pretreatment): did not
- phagocytosis of pHrodo BioParticles, sorted multinucleated cells vs control (MG6 cells [3]; 1000 nM pretreatment): increase in phagocytosis
- phagocytic activity, Pyk2-mono vs control (MG6 cells [3]; [4]): do not show significant difference
- phagocytic activity, Pyk2-multi vs Pyk2-mono and controls (MG6 cells [3]; [4]): higher phagocytic activity
- phagocytic activity, sorted mononuclear cells (Pyk2-mono) (MG6 cells [3]; 3 hours after pHrodo treatment): increased fluorescence signal
- phagocytic activity, sorted multinuclear cells (Pyk2-multi) (MG6 cells [3]; 3 hours after pHrodo treatment, listed as Pyk2 inhibitor): statistically significant increase; also recorded: increased fluorescence signal
